Tests used:
[1] = test system: Serratia marcescens, ATCC 13880; assay: Microbiology challenge test, log drop; format: cell-based; conditions: for Log drop at 6 hour: Table 6: Myristylamine 0.001 % w/w
Description: The following is the procedure by which various antimicrobial agents and solutions are tested for their ability to reduce microbial loads over short periods of time, typically 24 hours and less. The procedure is a basic microbiology challenge test, which involves the inoculation of test product aliquots with a known number of viable cells of several test organisms, and assay for the survivors at various time intervals. The results are used to calculate log drops at soak times and construct kill-curves (graphs of survivors versus time) if desired.
Candida albicans, ATCC 10231, is one of five organisms specified per FDA and ISO/CLI tests for the testing of contact lens disinfectants (FDA Premarket Notification (510k) Guidance Document for Contact Lens Care Products, Appendix B, Apr. 1, 1997 and ISO/FDIS 14729: Ophthalmic optics-Contact lens care products-Microbiological requirements and test methods for products and regimens for hygienic management of contact lenses, January 2001). Contact lens disinfectants are also known as contact lens multi-purpose solutions when they are used for rinsing, cleaning, disinfection, storage and rewetting contact lenses. The five FDA/ISO specified test organisms are listed below: • Serratia marcescens, ATCC 13880 • Staphylococcus aureus, ATCC 6538 • Pseudomonas aeruginosa, ATCC 9027 • Candida albicans, ATCC 10231 • Fusarium solani, ATCC 36031
The specific test procedure for testing antimicrobial activity against the five FDA/ISO specified test organisms is as follows (C. albicans is provided as a specific example): Test samples are sterile-filtered through a 0.22 micron sterile filter into sterile plastic high density polyethylene bottles or plastic flasks. A 10-mL aliquot of test sample is aseptically transferred into a sterile polystyrene plastic test tube. Sterile saline (0.90 w/v % NaCl) with 0.05 w/v % Polysorbate 80 (SS+TWEEN) is transferred into a separate control tube. All samples and control are stored at 20-25° C. throughout the duration of the test.
Test cultures of Candida albicans, ATCC 10231 are prepared in the conventional manner. Candida albicans cultures are grown on agar slants from primary frozen, lyophilized or “Culti-loop®” cultures. Three mL of sterile 0.9% saline is used to gently dislodge culture growth from the agar surface. The resulting harvest is transferred to an appropriate screw cap test tube containing glass beads and vortexed for approximately one minute. The vortexed harvest is diluted as needed with sterile 0.9% saline to prepare the culture inoculum with a concentration of 1×10e8 CFU/mL. Fifty microliters of culture inoculum is added to 10.0 mL of each test sample and control, so that the final inoculum level is in the range of 1×10e5 to 1×10e6 CFU(colony forming units) per mL of Candida albicans, ATCC 10231. Each sample and control tube is vortexed briefly to disperse the inoculum. Contact time intervals for testing activity against Candida are typically 4 or 6 hours, to conform to the intended product label instructions for contact lens soak time.
Aerobic Plate Count Methods are performed in order to quantitate test samples for their levels of survivors. At appropriate assay times, 0.5 mL well-vortexed aliquots are removed from sample tubes and added to glass test tubes containing 4.5 mL Letheen Neutralizing Broth media (Berton, Dickinson and Company, Sparks, Md.). After a previously determined, validated neutralizing time period, these samples are diluted 10-fold through serial dilutions using glass test tubes containing 4.5 mL Letheen Neutralizing Broth media. Aliquots of 0.1 mL are removed from each dilution tube and spread-plate applied to agar plates containing Sabouraud Dextrose Agar (SAB)(Berton, Dickinson and Company, Sparks, Md.). 10^1 to 10^4 CFU/mL survivor levels are quantitated. […]

[2] = Contact lens uptake: content left in solution after shaking with lenses; format: physicochemical; conditions: Myristylamine with TPGS 20 fold
Description: The results in Table 9A show the remaining quaternary ammonium and tertiary amine content left in solution after a 15 ml-solution-2 lenses closed system has been shaken for 6 days at room temperature. […] The control which was run for this experiment, which includes the remaining ingredients in the solutions referenced in Table 9A are listed in Table 9B. As one of ordinary skill in the art would realize, the less quaternary ammonium or tertiary amine content remaining in solution after the shaking period, the higher the absorption by the lenses.

[3] = Solubility in aqueous media; format: physicochemical
[4] = test system: five FDA/ISO specified test organisms; assay: Antimicrobial activity against the five-microbial panel, FDA/ISO disinfection criteria; format: cell-based; conditions: for stand-alone criteria: 10 ppm MA
Description: The following is the procedure by which various antimicrobial agents and solutions are tested for their ability to reduce microbial loads over short periods of time, typically 24 hours and less. The procedure is a basic microbiology challenge test, which involves the inoculation of test product aliquots with a known number of viable cells of several test organisms, and assay for the survivors at various time intervals. The results are used to calculate log drops at soak times and construct kill-curves (graphs of survivors versus time) if desired. Candida albicans, ATCC 10231, is one of five organisms specified per FDA and ISO/CLI tests for the testing of contact lens disinfectants (FDA Premarket Notification (510k) Guidance Document for Contact Lens Care Products, Appendix B, Apr. 1, 1997 and ISO/FDIS 14729: Ophthalmic optics-Contact lens care products-Microbiological requirements and test methods for products and regimens for hygienic management of contact lenses, January 2001). Contact lens disinfectants are also known as contact lens multi-purpose solutions when they are used for rinsing, cleaning, disinfection, storage and rewetting contact lenses. The five FDA/ISO specified test organisms are listed below: • Serratia marcescens, ATCC 13880 • Staphylococcus aureus, ATCC 6538 • Pseudomonas aeruginosa, ATCC 9027 • Candida albicans, ATCC 10231 • Fusarium solani, ATCC 36031 Candida albicans is often the most resistant of the five organisms to commonly used cationic antimicrobial agents in contact lens multi-purpose solutions. Thus, achievement of adequate antimicrobial activity against Candida is often the most difficult task to pass a particular disinfection efficacy standard. FDA and ISO guidelines specify two disinfection efficacy standards, indicated in the table below: Stand Alone Disinfectant (Primary) Criteria: [table] The specific test procedure for testing antimicrobial activity against the five FDA/ISO specified test organisms is as follows (C. albicans is provided as a specific example): Test samples are sterile-filtered through a 0.22 micron sterile filter into sterile plastic high density polyethylene bottles or plastic flasks. A 10-mL aliquot of test sample is aseptically transferred into a sterile polystyrene plastic test tube. Sterile saline (0.90 w/v % NaCl) with 0.05 w/v % Polysorbate 80 (SS+TWEEN) is transferred into a separate control tube. All samples and control are stored at 20-25° C. throughout the duration of the test.

CCCCCCCCCCCCCCN [Myristylamine]
Log Drop ([1]; Table 2A: Myristylamine 0.0003 % w/w, Tetronic 1307 0.05, pH 7.8): 1.18 | Log Drop ([1]; Table 2A: Myristylamine 0.0005 % w/w, Tetronic 1307 0.05, pH 7.8): 2.6 | Log Drop ([1]; Table 3: Myristylamine 0.0005 w/v % with WSCP 0.001, NaClO2 0.01, NaCitrate 0.4, T1307 0.05): 3.1 | Log Drop ([1]; Table 3: Myristylamine 0.0005 w/v %, WSCP 0.0, NaClO2 0.0, NaCitrate 0.0, T1307 0.05): 1.68 | Log Drop ([1]; Table 4: Myristylamine 0.0003 w/v % with PHMB 0.00003, Tetronic 1107 0.05, pH 7.8): 3.46 | Log Drop ([1]; Table 4: Myristylamine 0.0003 w/v %, PHMB 0, Tetronic 1107 0.05, pH 7.8): 1.18 | Log Drop ([1]; Table 5: Myristylamine 0.0005 w/v % with Polyquaternium-1 0.001, NaCitrate 0.6, Tetronic 1304 0.05, pH 7.8): 3.64 | Log drop at 6 hour ([1]; Tween 80 0.0074, Polyquaternium-1 0, pH 7.3, 6 hour): 1.19 | Log drop at 6 hour ([1]; Tween 80 0.0074, with Polyquaternium-1 0.000075, pH 7.3, 6 hour): 3.12 | remaining content left in solution, Acuvue ([2]; 15 ml solution, 2 Acuvue lenses, closed system shaken 6 days at room temperature): 34.1 ppm | remaining content left in solution, Purevision ([2]; 15 ml solution, 2 Purevision lenses, closed system shaken 6 days at room temperature): 13.0 ppm | remaining content left in solution, Without Lens ([2]; 15 ml system without lenses, shaken 6 days at room temperature): 37.9 ppm | solubility in aqueous solution with acid and surfactant ([3]; acid and surfactant containing an alkyl chain coexist, solution pH below 6): may be dissolved in an aqueous solution | solubility in acid ([3]; ambient temperature, solution pH below 2): insoluble in acid at ambient temperature | solubility in water ([3]; water or basic solution): does not dissolve in water or in a basic solution | stand-alone criteria ([4]; Tween 80:MA ratio 7.4): fail to meet the stand-alone criteria | stand-alone criteria ([4]; Tween 80:MA ratio 7.4, with addition of Polyquaternium-1): can still be a stand-alone disinfectant product | anti-bacteria activity ([4]; TPGS:MA ratio of 40): lost considerably | anti-fungal activity (Ca and Fs) ([4]; TPGS:MA ratio of up to 60): still seen
